Source: ChEMBL document CHEMBL5370544, “Design, synthesis, and biological evaluation of 1-styrenyl isoquinoline derivatives for anti-hepatocellular carcinoma activity and effect on mitochondria” (Eur J Med Chem, 2023)
The source made the active and inactive calls. The rule behind the calls is not given here.

How the values were obtained:
[1] = system: HCCLM9; assay: Antiproliferative activity against human HCCLM9 cells assessed as inhibition of cell growth measured after 72 hrs by MTT assay; format: functional, cell-based; settings: HCCLM9, 72 h
[2] = system: SK-HEP1; assay: Inhibition of colony formation in human SK-HEP1 cells assessed as reduction in number of cell colonies at 1.25 to 5 uM measured after 10 and 14 days by crystal violet staining based light microscopic analysis; format: functional; settings: dose 1.25-5 µM, time 14.0 day
[3] = system: Huh-7; assay: Antiproliferative activity against human Huh-7 cells assessed as reduction in ratio of EdU-positive cells measured after 24 hrs by EdU incorporation assay; format: functional, cell-based; settings: dose 0.55-2.2 µM
[4] = system: Huh-7; assay: Induction of cell cycle arrest in human Huh-7 cells assessed as increase in accumulation of cells at G2/M phase incubated for 24 hrs by propidium iodide staining based flow cytometry analysis; format: functional; settings: dose 0.9-8.1 µM
[5] = system: SK-HEP1; assay: Induction of cell cycle arrest in human SK-HEP1 cells assessed as decrease in accumulation of cells at G0/G1 phase incubated for 24 hrs by propidium iodide staining based flow cytometry analysis; format: functional; settings: dose 1.5-13.5 µM
[6] = system: Huh-7; assay: Induction of cell cycle arrest in human Huh-7 cells assessed as decrease in CDK1 expression incubated for 48 hrs by Western blotting analysis; format: functional, cell-based; settings: dose 0.9-8.1 µM
[7] = system: SK-HEP1; assay: Induction of cell cycle arrest in human SK-HEP1 cells assessed as decrease in cyclin A expression incubated for 48 hrs by Western blotting analysis; format: functional, cell-based; settings: dose 1.5-13.5 µM
[8] = system: SK-HEP1; assay: Inhibition of cell migration in human SK-HEP1 cells at 1.25 to 5 uM incubated for 24 hrs by crystal violet staining based transwell migration assay; format: functional; settings: dose 1.25-5 µM
[9] = system: Huh-7; assay: Induction of apoptosis in human Huh-7 cells assessed as cell membrane blebbing at 0.9 to 8.1 uM incubated for 24 hrs by giemsa staining based micrscopic analysis; format: functional; settings: dose 0.9-8.1 µM
[10] = system: SK-HEP1; assay: Induction of apoptosis in human SK-HEP1 cells assessed as cell membrane blebbing at 1.5 to 13.5 uM incubated for 24 hrs by giemsa staining based micrscopic analysis; format: functional; settings: dose 1.5-13.5 µM
[11] = system: SK-HEP1; assay: Induction of apoptosis in human SK-HEP1 cells assessed as chromatin condensation at 1.5 to 13.5 uM incubated for 24 hrs by giemsa staining based micrscopic analysis; format: functional, cell-based; settings: dose 1.5-13.5 µM
[12] = system: SK-HEP1; assay: Induction of apoptosis in human SK-HEP1 cells assessed as nuclear membrane breakdown at 1.5 to 13.5 uM incubated for 24 hrs by giemsa staining based micrscopic analysis; format: functional, cell-based; settings: dose 1.5-13.5 µM
[13] = system: SK-HEP1; assay: Induction of apoptosis in human SK-HEP1 cells assessed as genomic DNA fragmentation at 1.5 to 13.5 uM incubated for 24 hrs by giemsa staining based micrscopic analysis; format: functional, cell-based; settings: dose 1.5-13.5 µM
[14] = system: SK-HEP1; assay: Induction of apoptosis in human SK-HEP1 cells assessed as formation of apoptotic bodies at 1.5 to 13.5 uM incubated for 24 hrs by giemsa staining based micrscopic analysis; format: functional, cell-based; settings: dose 1.5-13.5 µM
[15] = system: Huh-7; assay: Induction of apoptosis in human Huh-7 cells assessed as increase in proportion of early apoptosis at 0.9 to 8.1 uM incubated for 24 hrs by Annexin V-AbFluor 488/propidium iodide staining based flow cytometry analysis; format: functional, cell-based; settings: dose 0.9-8.1 µM
[16] = system: SK-HEP1; assay: Induction of apoptosis in human SK-HEP1 cells assessed as increase in proportion of early apoptosis at 1.5 to 13.5 uM incubated for 24 hrs by Annexin V-AbFluor 488/propidium iodide staining based flow cytometry analysis; format: functional, cell-based; settings: dose 1.5-13.5 µM
[17] = system: Huh-7; assay: Induction of apoptosis in human Huh-7 cells assessed as increase in proportion of late apoptosis at 0.9 to 8.1 uM incubated for 24 hrs by Annexin V-AbFluor 488/propidium iodide staining based flow cytometry analysis; format: functional, cell-based; settings: dose 0.9-8.1 µM
[18] = system: SK-HEP1; assay: Induction of apoptosis in human SK-HEP1 cells assessed as increase in proportion of late apoptosis at 1.5 to 13.5 uM incubated for 24 hrs by Annexin V-AbFluor 488/propidium iodide staining based flow cytometry analysis; format: functional, cell-based; settings: dose 1.5-13.5 µM
[19] = system: SK-HEP1; assay: Induction of mitochondrial membrane potential depolarization in human SK-HEP1 cells incubated for 24 hrs by TMRE staining based flow cytometry analysis; format: functional, cell-based; settings: dose 1.5-13.5 µM
[20] = system: Huh-7; assay: Induction of apoptosis in human Huh-7 cells assessed as inhibition of Bcl-2 expression incubated for 48 hrs by Western blotting analysis; format: functional, cell-based; settings: dose 0.9-8.1 µM
[21] = system: Huh-7; assay: Induction of apoptosis in human Huh-7 cells assessed as increase in cleaved caspase-9 expression at 0.9 to 8.1 uM incubated for 48 hrs by Western blotting analysis; format: functional, cell-based; settings: dose 0.9-8.1 µM
[22] = system: SK-HEP1; assay: Induction of apoptosis in human SK-HEP1 cells assessed as inhibition of Bcl-2 expression incubated for 48 hrs by Western blotting analysis; format: functional, cell-based; settings: dose 1.5-13.5 µM
[23] = system: SK-HEP1; assay: Induction of apoptosis in human SK-HEP1 cells assessed as increase in Bax expression at 1.5 to 13.5 uM incubated for 48 hrs by Western blotting analysis; format: functional, cell-based; settings: dose 1.5-13.5 µM
[24] = system: SK-HEP1; assay: Induction of apoptosis in human SK-HEP1 cells assessed as increase in cytochrome-C expression at 1.5 to 13.5 uM incubated for 48 hrs by Western blotting analysis; format: functional, cell-based; settings: dose 1.5-13.5 µM
[25] = system: SK-HEP1; assay: Induction of apoptosis in human SK-HEP1 cells assessed as increase in cleaved caspase-3 expression at 1.5 to 13.5 uM incubated for 48 hrs by Western blotting analysis; format: functional, cell-based; settings: dose 1.5-13.5 µM
[26] = system: SK-HEP1; assay: Inhibition of PI3K signalling pathway in human SK-HEP1 cells assessed as inhibition of PI3K phosphorylation at 1.5 to 13.5 uM measured after 48 hrs by Western blotting analysis; format: cell-based; settings: dose 1.5-13.5 µM
[27] = target: Serine/threonine-protein kinase AKT (Homo sapiens) (UniProt P31751+Q9Y243+P31749); assay: Inhibition of Akt signalling pathway in human SK-HEP1 cells assessed as inhibition of Akt phosphorylation at 1.5 to 13.5 uM measured after 48 hrs by Western blotting analysis; format: cell-based; settings: dose 1.5-13.5 µM
[28] = target: Serine/threonine-protein kinase mTOR (Homo sapiens) (UniProt P42345); assay: Inhibition of mTOR signalling pathway in human SK-HEP1 cells assessed as inhibition of mTOR phosphorylation at 1.5 to 13.5 uM measured after 48 hrs by Western blotting analysis; format: cell-based; settings: dose 1.5-13.5 µM
[29] = system: Huh-7; assay: Antitumor activity against human Huh-7 cells xenografted in BALB/c mouse assessed as tumor growth inhibition at 15 mg/kg, ip qd measured after 14 days; format: functional; settings: Huh-7, 336 h, time 14 day, read-out: TGI
[30] = system: Huh-7; assay: Antitumor activity against human Huh-7 cells xenografted in BALB/c mouse assessed as reduction in tumor growth at 15 to 30 mg/kg, ip qd measured after 5 days; format: functional, organism-based; settings: dose 15-30 mg/kg, time 5.0 day
[31] = system: Huh-7; assay: Antitumor activity against human Huh-7 cells xenografted in ip dosed BALB/c mouse assessed as reduction in tumor weight measured after 14 days; format: functional, organism-based; settings: dose 15-30 mg/kg, time 14.0 day
[32] = system: Huh-7; assay: Antitumor activity against human Huh-7 cells xenografted in ip dosed BALB/c mouse assessed as reduction in tumor volume measured after 14 days; format: functional, organism-based; settings: dose 15-30 mg/kg, time 14.0 day
[33] = Toxicity in BALB/c mouse xenografted with human Huh-7 cells assessed as change in body weight at 15 to 30 mg/kg, ip qd measured after 14 days; format: organism-based; settings: in vivo, 336 h, dose 15-30 mg/kg, time 14 day
[34] = Acute toxicity in BALB/c mouse assessed as mouse survival at 650 mg/kg, ip measured after 14 days; format: organism-based; settings: in vivo, 336 h, time 14 day

Sequence of Serine/threonine-protein kinase AKT (Homo sapiens) (P31749 whole entry, looked up): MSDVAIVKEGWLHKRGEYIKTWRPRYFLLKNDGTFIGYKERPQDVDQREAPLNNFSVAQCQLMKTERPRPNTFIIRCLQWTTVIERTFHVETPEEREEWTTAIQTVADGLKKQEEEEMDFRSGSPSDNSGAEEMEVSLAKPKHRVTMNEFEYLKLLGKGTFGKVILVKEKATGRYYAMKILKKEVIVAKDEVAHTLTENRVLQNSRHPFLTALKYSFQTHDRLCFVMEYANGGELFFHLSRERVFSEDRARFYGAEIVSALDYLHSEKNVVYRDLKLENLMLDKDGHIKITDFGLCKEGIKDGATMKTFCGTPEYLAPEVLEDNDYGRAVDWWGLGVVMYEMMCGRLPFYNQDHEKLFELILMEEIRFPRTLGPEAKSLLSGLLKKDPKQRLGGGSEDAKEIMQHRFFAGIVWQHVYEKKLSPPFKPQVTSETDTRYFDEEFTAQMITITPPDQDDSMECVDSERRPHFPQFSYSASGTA
Sequence of Serine/threonine-protein kinase AKT (Homo sapiens) (P31751 whole entry, looked up): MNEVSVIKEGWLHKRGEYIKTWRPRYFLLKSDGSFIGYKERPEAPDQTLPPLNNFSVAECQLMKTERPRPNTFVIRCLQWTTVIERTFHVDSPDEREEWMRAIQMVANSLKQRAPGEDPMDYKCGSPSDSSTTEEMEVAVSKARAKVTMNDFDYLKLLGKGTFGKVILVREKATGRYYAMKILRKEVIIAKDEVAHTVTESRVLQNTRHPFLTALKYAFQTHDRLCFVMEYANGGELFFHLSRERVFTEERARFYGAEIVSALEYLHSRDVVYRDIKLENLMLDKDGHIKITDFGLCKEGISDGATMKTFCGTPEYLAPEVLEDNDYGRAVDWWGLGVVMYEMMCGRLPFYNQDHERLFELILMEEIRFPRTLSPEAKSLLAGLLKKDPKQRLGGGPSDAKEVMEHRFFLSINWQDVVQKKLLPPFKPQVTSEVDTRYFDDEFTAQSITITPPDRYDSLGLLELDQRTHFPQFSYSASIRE
Sequence of Serine/threonine-protein kinase AKT (Homo sapiens) (Q9Y243 whole entry, looked up): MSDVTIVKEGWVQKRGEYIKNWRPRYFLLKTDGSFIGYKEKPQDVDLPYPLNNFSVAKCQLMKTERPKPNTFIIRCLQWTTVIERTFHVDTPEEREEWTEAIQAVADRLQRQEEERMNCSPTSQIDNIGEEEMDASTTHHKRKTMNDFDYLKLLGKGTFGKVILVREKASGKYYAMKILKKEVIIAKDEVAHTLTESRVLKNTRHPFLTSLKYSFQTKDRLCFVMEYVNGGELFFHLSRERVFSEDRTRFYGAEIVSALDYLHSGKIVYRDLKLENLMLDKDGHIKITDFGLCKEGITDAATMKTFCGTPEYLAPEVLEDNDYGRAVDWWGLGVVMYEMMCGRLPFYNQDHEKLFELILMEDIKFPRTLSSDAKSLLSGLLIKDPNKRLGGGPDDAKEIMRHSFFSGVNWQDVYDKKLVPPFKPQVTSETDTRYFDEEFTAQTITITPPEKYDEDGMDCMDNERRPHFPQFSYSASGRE

For CC(=O)Oc1ccccc1/C=C/c1nccc2ccccc12, the IC50 [1] was 6.14 µM, the inhibition [2] was “Active” and the Activity [3] was “Dose-Dependent Effect”. For the same compound, the Activity [4] was “Dose-Dependent Effect”, the Activity [5] was “Dose-Dependent Effect” and the Activity [6] was “Dose-Dependent Effect”. For the same compound, the Activity [7] was “Dose-Dependent Effect”, the inhibition [8] was “Active” and the Activity [9] was “Active”. For the same compound, the Activity [10] was “Active”, the Activity [11] was “Active” and the Activity [12] was “Active”. The Activity [13] was “Active”, the Activity [14] was “Active” and the Activity [15] was “Active”. For the same compound, the Activity [16] was “Active”, the Activity [17] was “Active” and the Activity [18] was “Active”. For the same compound, the Activity [19] was “Dose-Dependent Effect”, the Activity [20] was “Dose-Dependent Effect” and the Activity [21] was “Active”. For the same compound, the Activity [22] was “Dose-Dependent Effect”, the Activity [23] was “Active” and the Activity [24] was “Active”. For the same compound, the Activity [25] was “Active”, the inhibition [26] was “Active” and the inhibition [27] was “Active”. For the same compound, the inhibition [28] was “Active”, the inhibition in vivo at 15 mg/kg [29] was 27.4% and the Activity [30] was “Active”. For the same compound, the Activity [31] was “Dose-Dependent Effect”, the Activity [32] was “Dose-Dependent Effect” and the Activity [33] was “Non-Toxic”. The Activity [34] was “Non-Toxic”.
